This is an account of results in patent US10865191B2, “Heterocyclic compounds useful as modulators of TNF alpha” (BRISTOL-MYERS SQUIBB COMPANY, priority 2015, dated 2020).

Sequence of TNFα (P01375 77-233 limits assumed): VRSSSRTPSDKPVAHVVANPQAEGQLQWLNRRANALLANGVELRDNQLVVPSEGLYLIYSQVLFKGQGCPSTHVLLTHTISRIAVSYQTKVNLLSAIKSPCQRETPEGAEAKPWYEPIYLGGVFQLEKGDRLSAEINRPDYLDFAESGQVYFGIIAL

The target of one assay is TNFα (Homo sapiens, UniProt P01375). Put plainly: TNF induced HEK-Blue assay (NF-kB-driven secreted alkaline phosphatase reporter). In kind it is cell-based. The settings on record: TNF induced HEK-Blue assay IC50 value, TNFα 0.5 ng/mL, HEK-Blue-CD40L cells, 18 h. A digest of the protocol:
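HEK-Blue-CD40L cells (NF-kB-driven SEAP reporter), 20,000/well, added after 30 min pre-incubation of compound (0.004–25 μM final) with TNFα 0.5 ng/mL final at 37 °C; 18 h incubation. SEAP read with QUANTI-Blue at 620 nm; IC50 from 4-parameter logistic fit, normalized to unstimulated and stimulated DMSO controls.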
`CC(Nc1c(Cl)cnc2ccc(-c3cnc(C(C)(C)O)nc3)cc12)c1ccc(F)cc1` (racemic) [Example 157, 2-(5-(3-chloro-4-((1-(4-fluorophenyl)ethyl)amino)quinolin-6-yl)pyrimidin-2-yl)propan-2-ol] registered a half-inhibitory concentration (IC50) of 10000 to 25000 nM.

Staying with this assay, now noted: TNFα 0.5 ng/mL, HEK-Blue-CD40L cells, 18 h; read-out: TNF induced HEK-Blue assay IC50 value.
Regarding `CC(C)(O)c1ncc(-c2nc3c(N[C@H](c4cc(C(=O)O)ccc4F)C(F)F)c(Cl)cnc3cc2F)cn1` [Example 485, (R)-3-(1-((3-chloro-7-fluoro-6-(2-(2-hydroxypropan-2-yl)pyrimidin-5-yl)-1,5-naphthyridin-4-yl)amino)-2,2-difluoroethyl)-4-fluorobenzoic acid], the IC50 is 1000 to 10000 nM.

Consider `C[C@@H](Nc1c(Cl)cnc2ccc(-c3ccc(N4CCOC[C@H]4CO)nc3)cc12)c1ccccc1F` [Example 85, ((R)-4-(5-(3-chloro-4-(((R)-1-(2-fluorophenyl)ethyl)amino)quinolin-6-yl)pyridin-2-yl)morpholin-3-yl)methanol], for which the concentration for half-maximal inhibition (IC50) was in the range of 1000 to 10000 nM.

Consider `CC(Nc1ncc(-c2ccc3ncc(Cl)c(N[C@H](C)c4ccccc4F)c3c2)cn1)C(N)=O` (stereo partly drawn) [Example 591, 2-((5-(3-chloro-4-(((R)-1-(2-fluorophenyl)ethyl)amino)quinolin-6-yl)pyrimidin-2-yl)amino)propanamide], for which the half-maximal inhibitory concentration (IC50) was less than 1000 nM.

For `C=Cc1ccc(F)c([C@H](Nc2c(Cl)cnc3cc(F)c(-c4cnc(C(C)(C)O)nc4)nc23)C(F)F)c1` [Example 495, (S)-2-(5-(7-chloro-8-((2,2-difluoro-1-(2-fluoro-5-vinylphenyl)ethyl)amino)-3-fluoro-1,5-naphthyridin-2-yl)pyrimidin-2-yl)propan-2-ol], the concentration for half-maximal inhibition (IC50) was less than 1000 nM.

On to `C[C@@H](Nc1c(Cl)cnc2cc(F)c(-c3cnc(C(C)(C)O)nc3)cc12)c1cc(C#N)ccc1F` [Example 379, (R)-3-(1-((3-chloro-7-fluoro-6-(2-(2-hydroxypropan-2-yl)pyrimidin-5-yl)quinolin-4-yl)amino)ethyl)-4-fluorobenzonitrile], for which the half-maximal inhibitory concentration (IC50) was less than 1000 nM.

With `CC(Nc1c(Cl)cnc2ccc(-c3ccc(C(C)(C)O)cc3)cc12)c1ccco1` (racemic) [Example 192, 2-(4-(3-chloro-4-((1-(furan-2-yl)ethyl)amino)quinolin-6-yl)phenyl)propan-2-ol], the IC50 is less than 1000 nM.

Turning to `Cc1nc2ccc(-c3cnc(C(C)(C)O)nc3)cc2c(N[C@H](C)c2cc(OCC(=O)O)ccc2F)c1Cl` [Example 439, (R)-2-(3-(1-((3-chloro-6-(2-(2-hydroxypropan-2-yl)pyrimidin-5-yl)-2-methylquinolin-4-yl)amino)ethyl)-4-fluorophenoxy)acetic acid], the 50% inhibitory concentration (IC50) was less than 1000 nM.

On to `CC(Nc1c(Cl)cnc2ccc(-c3ccc(C(C)(C)O)cc3)cc12)c1cccnc1` (racemic) [Example 166, 2-(4-(3-chloro-4-((1-(pyridin-3-yl)ethyl)amino)quinolin-6-yl)phenyl)propan-2-ol], for which the IC50 lay in the range of 10000 to 25000 nM.

`C[C@@H](Nc1c(Cl)cnc2ccccc12)c1cc(-c2cccc(C#N)c2)ccc1F` [Example 539, (R)-3′-(1-((3-chloroquinolin-4-yl)amino)ethyl)-4′-fluoro-[1,1′-biphenyl]-3-carbonitrile]: the IC50 was less than 1000 nM.

Turning to `Fc1ccc(Br)cc1[C@@H](Nc1c(Cl)cnc2ccccc12)C(F)F` [Example 510, (R)—N-(1-(5-bromo-2-fluorophenyl)-2,2-difluoroethyl)-3-chloroquinolin-4-amine], the half-inhibitory concentration (IC50) lay in the range of 1000 to 10000 nM.

As to `C[C@@H](Nc1c(Cl)cnc2ccccc12)c1cc(-c2cnc(N3CCOCC3)nc2)ccc1F` [Example 467, (R)-3-chloro-N-(1-(2-fluoro-5-(2-morpholinopyrimidin-5-yl)phenyl)ethyl)quinolin-4-amine], the IC50 was 1000 to 10000 nM.

For `Cc1nc2ccc(-c3cnc(C(C)(C)O)nc3)cc2c(N[C@H](C)c2cc(Cc3ccccc3)ccc2F)c1Cl` [Example 396, (R)-2-(5-(4-((1-(5-benzyl-2-fluorophenyl)ethyl)amino)-3-chloro-2-methylquinolin-6-yl)pyrimidin-2-yl)propan-2-ol], the 50% inhibitory concentration (IC50) was less than 1000 nM.

`C[C@@H](Nc1c(Cl)cnc2ccccc12)c1cc(-c2cnc(N(C)C)nc2)ccc1F` [Example 536, (R)-3-chloro-N-(1-(5-(2-(dimethylamino)pyrimidin-5-yl)-2-fluorophenyl)ethyl)quinolin-4-amine]: the IC50 was in the range of 1000 to 10000 nM.

Regarding `CC(Nc1c(Cl)cnc2cc(F)c(-c3cnc(N4CCN(CC(=O)O)CC4)nc3)cc12)c1ccccc1F` (single isomer, unassigned) [Example 242, 2-(4-(5-(3-chloro-7-fluoro-4-((1-(2-fluorophenyl)ethyl)amino)quinolin-6-yl)pyrimidin-2-yl)piperazin-1-yl)acetic acid], the IC50 was less than 1000 nM.

Turning to `CC(C)(O)c1ncc(-c2ccc3ncc(Cl)c(NC(c4ccccc4F)C(C)(C)F)c3c2)cn1` (racemic) [Example 229, 2-(5-(3-chloro-4-((2-fluoro-1-(2-fluorophenyl)-2-methylpropyl)amino)quinolin-6-yl)pyrimidin-2-yl)propan-2-ol], the half-maximal inhibitory concentration (IC50) is 10000 to 25000 nM.

In the case of `O=C(O)CN1CCN(c2ncc(-c3ccc4ncc(Cl)c(N[C@@H](c5ccccc5F)C(F)F)c4c3)cn2)CC1=O` [Example 76, (S)-2-(4-(5-(3-chloro-4-((2,2-difluoro-1-(2-fluorophenyl)ethyl)amino)quinolin-6-yl)pyrimidin-2-yl)-2-oxopiperazin-1-yl)acetic acid], the IC50 was less than 1000 nM.

On to `CCCC(C)C(=O)c1c(Cl)c(C)nc2ccc(-c3cnc(C(C)(C)O)nc3)cc12` (racemic) [Example 356, ± 1-(3-Chloro-6-(2-(2-hydroxypropan-2-yl)pyrimidin-5-yl)-2-methylquinolin-4-yl)-2-methylpentan-1-one], for which the IC50 was 10000 to 25000 nM.

Turning to `CC(Nc1c(Cl)cnc2cc(F)c(-c3cnc(N4CCC(O)C4)cn3)cc12)c1ccccc1F` (stereo not shown) [Example 284, 1-(5-(3-chloro-7-fluoro-4-((1-(2-fluorophenyl)ethyl)amino)quinolin-6-yl)pyrazin-2-yl)pyrrolidin-3-ol], the IC50 lay within 1000 to 10000 nM.

For the compound `C=CC[C@@H](Nc1c(Cl)cnc2ccc(-c3cnc(C(C)(C)O)nc3)cc12)c1cc(Cl)ccn1` [Example 63, (R)-2-(5-(3-chloro-4-((1-(4-chloropyridin-2-yl)but-3-en-1-yl)amino)quinolin-6-yl)pyrimidin-2-yl)propan-2-ol], the half-inhibitory concentration (IC50) was less than 1000 nM.

As to `Cc1nc2cc(F)c(-c3cnc(C(C)(C)O)nc3)cc2c(N[C@H](C)c2cc(CCO)ccc2F)c1Cl` [Example 325, (R)-2-(5-(3-chloro-7-fluoro-4-((1-(2-fluoro-5-(2-hydroxyethyl)phenyl)ethyl)amino)-2-methylquinolin-6-yl)pyrimidin-2-yl) propan-2-ol], the IC50 is less than 1000 nM.

Regarding `CC(C)(O)c1ncc(-c2cc3c(NC4(c5ccccc5F)CC4)c(Cl)cnc3cc2F)cn1` [Example 278, 2-(5-(3-chloro-7-fluoro-4-((1-(2-fluorophenyl)cyclopropyl)amino)quinolin-6-yl)pyrimidin-2-yl)propan-2-ol], the IC50 is less than 1000 nM.

`COc1ccccc1-c1ccc(F)c([C@@H](C)Nc2c(Cl)cnc3ccccc23)c1` [Example 549, (R)-3-chloro-N-(1-(4-fluoro-2′-methoxy-[1,1′-biphenyl]-3-yl)ethyl)quinolin-4-amine]: the concentration for half-maximal inhibition (IC50) was 1000 to 10000 nM.

As for `CCOC(=O)c1nc2ccc(-c3cnc(C(C)(C)O)nc3)cc2c(N[C@H](C)c2cc(C#N)ccc2F)c1Cl` [Example 384, ethyl (R)-3-chloro-4-((1-(5-cyano-2-fluorophenyl)ethyl)amino)-6-(2-(2-hydroxypropan-2-yl)pyrimidin-5-yl)quinoline-2-carboxylate], the IC50 lay in the range of 1000 to 10000 nM.

Take `C[C@@H](Nc1c(Cl)cnc2ccc(F)cc12)c1cc(-c2cncnc2)ccc1F` [Example 544, (R)-3-chloro-6-fluoro-N-(1-(2-fluoro-5-(pyrimidin-5-yl)phenyl)ethyl)quinolin-4-amine]: the half-maximal inhibitory concentration (IC50) was less than 1000 nM.

With `Cc1ccc(Br)cc1Nc1c(Cl)c(C)nc2ccccc12` [Example 470, N-(5-bromo-2-methylphenyl)-3-chloro-2-methylquinolin-4-amine], the half-maximal inhibitory concentration (IC50) is 10000 to 25000 nM.

Consider `CC(Nc1c(Cl)cnc2cc(F)c(-c3cnc(N4CCNCC4)nc3)cc12)c1ccccc1F` (single isomer, unassigned) [Example 608, 3-chloro-7-fluoro-N-(1-(2-fluorophenyl)ethyl)-6-(2-(piperazin-1-yl)pyrimidin-5-yl)quinolin-4-amine], for which the half-inhibitory concentration (IC50) was less than 1000 nM.

`Cc1nc2cc(F)c(-c3cnc(C(C)(C)O)nc3)cc2c(N[C@H](C)c2cc(OCCCO)ccc2F)c1Cl` [Example 443, (R)-3-(3-(1-((3-chloro-7-fluoro-6-(2-(2-hydroxypropan-2-yl)pyrimidin-5-yl)-2-methylquinolin-4-yl)amino)ethyl)-4-fluorophenoxy)propan-1-ol]: the IC50 was less than 1000 nM.

On to `C[C@@H](Nc1c(Cl)cnc2ccc(-c3cnc(N4CCN(CC#N)CC4)nc3)cc12)c1ccccc1F` [Example 233, (R)-2-(4-(5-(3-chloro-4-((1-(2-fluorophenyl)ethyl)amino)quinolin-6-yl)pyrimidin-2-yl)piperazin-1-yl)acetonitrile], for which the IC50 is less than 1000 nM.

On to `Cc1nc2ccc(-c3cnc(C(C)(C)O)nc3)cc2c(N[C@H](c2cc(Br)ccc2F)C(F)F)c1Cl` [Example 321, (R)-2-(5-(4-((1-(5-bromo-2-fluorophenyl)-2,2-difluoroethyl)amino)-3-chloro-2-methylquinolin-6-yl)pyrimidin-2-yl) propan-2-ol], for which the IC50 lay in the range of 10000 to 25000 nM.

For the compound `Cc1nc2ccc(-c3cnc(C(C)(C)O)nc3)cc2c(N[C@@H](c2cc(C(N)=O)ccc2F)C(F)F)c1Cl` [Example 390, (S)-3-(1-((3-chloro-6-(2-(2-hydroxypropan-2-yl)pyrimidin-5-yl)-2-methylquinolin-4-yl)amino)-2,2-difluoroethyl)-4-fluorobenzamide], the IC50 is less than 1000 nM.
